Data as given in patent US6590123B2, “Aminobenzoic acid derivatives having anti-tumorigenic activity, methods of making and using the same” (Mount Sinai School of Medicine of New York University, priority 1998, dated 2003).
In brackets after ≈: the same amount, converted by molar mass. Several values for one entry are separate records, joined by “and”; a condition that tells them apart may be missing. Equal entries are not always repeated. Entries after “also recorded” stand apart in the source; their conditions may differ. Where two headings read alike, the source gives them in different places.

Key:
[1] = tested on: CEM cells; assay: Cytotoxicity, ID50 and ID90 by trypan blue staining; format: cell-based; conditions: for IC90 / IC50: Homo sapiens, CCRF-CEM; for IC90: 48 h, read-out: ID90 (the source's name); for IC50: NT = Non-toxic to CEM cells
Procedure: CEM cells, a human T-cell lymphoblastoid leukemia cell line (American Type Culture Collection, Rockville, Md.), were cultured in suspension (Iscove's Dulbecco's Medium) supplemented with 10% heat inactivated fetal bovine serum (FBS), penicillin (250 μ/ml) and streptomycin (250 μl/ml). Cells were incubated at 37° C. in 5% C02 and only those cells in exponential growth were used.
CEM cells were seeded into 96-well microplates (Falcon, Oxnard, Calif.) at 10^5 cell per well, then treated with 0-10 μg/ml of the candidate compounds for 48 h at 37° C. yielding a total volume of 250 μ/well. Cell viability was assessed by trypan blue staining. ID50 and ID90 were defined as the concentration killing 50% or 90% of the cells in comparison with untreated controls, and calculated by non-linear regression analysis.
Cells in suspension culture were seeded into 96-well microplates (Falcon, Oxnard, Calif.) at 10^5 cell per well, followed, by treatment with 0-10 μg/ml of the candidate compounds for 48 hr at 37° C. with total volume of 250 μl per well. Cell viability was assessed by trypan blue exclusion.
The ID50 and ID90 was determined in duplicate in every set of experiments, and each experiment was repeated 3 times under identical conditions. ID50 and ID90 were defined as drug concentrations that induced 50% or 90% cellular death in comparison with untreated controls and calculated by non-linear regression analysis. […]

[2] = tested on: CEM cells; assay: Morphology by microscopy (mitotic arrest, apoptosis, necrosis); format: cell-based, human; parameters: key to Block of Mitosis: +Block of mitosis was observed; −no mitotic blocking; conditions: for mitotic arrest (blocking) effect, morphological appearance / Mitotic arrest, % / apoptosis by morphology: CEM cells; for mitotic arrest (blocking) effect, morphological appearance: 24 h, compound 8 at 0.025 μg/ml, compound 9 at 0.005 μg/ml; for morphological effect on leukemic cells / Activities of inducing Apoptosis / Activities of inducing Mitotic block / Activities of inducing Necrosis: CEM leukemic cells; for Activities of inducing Apoptosis / Activities of inducing Mitotic block / Activities of inducing Necrosis: % of affected cells; for Mitotic arrest, %: % of mitotic cells after 24 h incubation, optical microscopy; for apoptosis by morphology: treatment prolonged to 48 h
Procedure: Slides for examination of mitosis were prepared on a cytospin centrifuge (Shandon Southern Products Ltd, England ) at 700 g for 5 min. Slides were air dried, fixed in methanol and stained with Giemsa (Harleco, N.J.) at room temperature for 15 min. Cells in mitotic arrest were recognized by the disappearance of nuclear membrane and by the appearance of chromosomal scattering throughout the cytoplasm (reference 1). The % of mitotic cells were counted after 24 h incubation using optical microscopy. Apoptotic cells were identified using common criteria, i.e., shrinkage in cell size, chromatin condensation and fragmentation of the nucleus into discrete masses (reference 2).
Cell samples on slides were prepared by a Cytospin centrifuge (Shandon Southern Products Ltd, England) at 700 g for 5 min. The slides were air dried, fixed in methanol and stained with Giemsa (Harleco, N.J.) at room temperature for 15 min. Alterations of nuclei, membranes and morphological features were observed by light microscopy. Cells in mitotic phase were recognized by the appearance of their chromosomes dispersed in the cytoplasm, and by the disappearance of nuclear membrane. Apoptotic-cells were identified using previously defined criteria, i.e., shrinkage in cell size, chromatin condensation and fragmentation of the nucleus into discrete masses (references 2 & 3). Necrotic cells were differentiated from apoptotic cells by observing swollen cytoplasm and the disappearance of cell membrane prior to the destruction of the nucleus.

[3] = tested on: Purified tubulin; assay: Inhibition of microtubule assembly by spectrophotometry, cell free system; format: biochemical, calf; conditions: cell free tubulin; for inhibition of microtubule assembly: 1 μg/ml (3.3 μM for 3-BAABU)
Procedure: Purified tubulin was purchased from Sigma (St. Louis, Mo.). The effects of compounds 6, 7, 8, 9, paclitaxel and vinblastine on the microtubule assembly-disassembly process were determined using conditions recommended by the vendor. For assembly inhibition, 100 μl tubulin solution (500-600 μg protein/ml) was mixed gently with 400 μl reaction buffer containing 0.1 M MES (2-[N-morpholino]ethane sulfonic acid), 1 mM EGTA ([…]-N,N,N′,N′-tetraacetic acid), 0.5 mM MgCl2, 0.1 mM EDTA and 2.5 M gycerol at 37° C. Compounds 6, 7, 8, and 9 were next added to each sample at final concentrations of 10, 10, 1 and 1 μg/ml, respectively. After adding GTP to each sample to a final concentration of 1 mM, the microtubule assembly process was monitored by measuring the change of absorbance (OD) at 350 nm on a spectrophotometer (Ultrospec III, Pharmacia LKB, Uppsala, Sweden). A completed assembly process was observed within 40 min at room temperature. For disassembly inhibition, compounds 6, 7, 8, and 9 were added, at the above concentrations, to covets with repolymerized microtubules as described above, and incubated in melting ice. Changes of absorbance (OD) were monitored at 350 nm for 30 min until the OD values in the controls returned to the starting level, i.e., when the assembly-disassembly cycle was completed.
Purified tubulin from calf brain was purchased from Sigma (St. Louis, Mo.). The effects of 3-BAABU (3-bromoacetoamido, benzoylurea) on the microtubule assembly-disassembly process were determined using the conditions recommended by the vendor. For assembly inhibition, 100 μl tubulin solution (500-600 μg protein/ml) was mixed gently with 400 μl reaction buffer containing 0.1 M MES, 1 mM EGTA, 0.5 mM MgCl2, 0.1 mM EDTA and 2.5 M glycerol at 37° C. 3-BAABU, paclitaxel or vinblastine were then added to each sample cuvet at final concentrations of 3.3, 23 or 22 μM, respectively. After adding GTP to each sample to a final concentration of 1 mM, the microtubule assembly process was monitored by measuring the change of absorbance (OD) every 5 min at 350 nm on a spectrophotometer (Ultrospec III, Pharmacia LKB, Uppsala, Sweden). A completed assembly process was observed within 40 min at room temperature. For disassembly inhibition, 3-BAABU (3.3 μM), paclitaxel (23 μM) or vinblastine (22 μM) was added to a cuvet with repolymerized microtubules according to the method described above, and incubated in melting ice. Changes of absorbance (OD) were monitored at 350 nm for 30 min until the OD values in the controls returned to the starting level, i.e., completion of the assembly-disassembly cycle. Solvent solutions were used as control and had no effect in either the assembly or disassembly process.

[4] = tested on: CEM cells; assay: Cell cycle analysis by flow cytometry; format: cell-based, human; conditions: for shift of the cell population from G0/G1 (2N) to G2/M (4N), DNA profile: 8 h treatment, compound 6 2.5 μg/ml, compound 8 0.025 μg/ml, compound 9 0.005 μg/ml; for Apoptosis (%) / G0/G1 (%) / G2/M (%) / S (%) / Mitotic Arrest: 0.025 μg/ml; for Mitotic Arrest: cell cycle analyses
[5] = CEM cells, concentration killing 90% of the cells

NC(=O)NC(=O)c1cccc(NC(=O)CCl)c1 [Compound 7, 3-Chloroacetoamido, benzoylurea]
fold increase of ID50 relative to 3-BAABU ([1]; CEM leukemic cells): 40 fold | IC90 [1, 5]: 0.6 µg/mL and 2.3 µM | IC50 ([1]; CEM leukemic cells, 48 hr): 1950 nM | mitotic arrest (blocking) effect, morphological appearance [2]: minor | morphological effect on leukemic cells [2]: also induced mitotic arrest but with less disorganization | Activities of inducing Apoptosis [2]: ++ (++: 25-50%) | Activities of inducing Mitotic block [2]: + (+10-25%) | Activities of inducing Necrosis [2]: − (−:<10%) | effect on microtubule assembly ([3]; up to 10 μg/ml): very weak inhibitory effect; also recorded: no effect | shift of the cell population from G0/G1 (2N) to G2/M (4N), DNA profile [4]: slight increase

NC(=O)NC(=O)c1cccc(NC(=O)CBr)c1 [Compound 8, 3-Bromoacetoamido, benzoylurea]
IC90 [1, 5]: 0.025 µg/mL and 82 nM | IC90 ([1]; CEM, Human T-cell Leukemia, 48 hr): 0.02 ± 0.003 µg/mL (≈ 0.0666 µM) | IC50 ([1]; CEM leukemic cells, 48 hr): 40 nM | ID50 of non-malignant cells relative to leukemic and lymphoma cell lines (times) ([1]; non-malignant cells vs leukemia or lymphoma cell lines, listed as 3-BAABU): 60-150 times | mitotic arrest (blocking) effect, morphological appearance [2]: main features of mitotic arrest | Mitotic arrest, % [2]: >85% | apoptosis by morphology [2]: complete apoptosis | morphological effect on leukemic cells [2]: induced mitotic arrest | Activities of inducing Apoptosis [2]: ++++ (++++: >75%) | Activities of inducing Mitotic block [2]: ++++ (++++: >75%) | Activities of inducing Necrosis [2]: − (−:<10%) | Block of Mitosis ([2]; CEM, Human T-cell Leukemia, 37° C. for 48 hr): + | inhibition of microtubule assembly [3]: complete inhibition; also recorded: completely inhibited | inhibition of microtubule assembly ([3]; listed as 3-BAABU): Complete inhibition | Apoptosis (%) ([4]; 1 hour of treatment): 2% | G0/G1 (%) ([4]; 1 hour of treatment): 48% | G2/M (%) ([4]; 1 hour of treatment): 21% | S (%) ([4]; 1 hour of treatment): 29% | Apoptosis (%) ([4]; 2 hours of treatment): 1% | G0/G1 (%) ([4]; 2 hours of treatment): 35% | G2/M (%) ([4]; 2 hours of treatment): 22% | S (%) ([4]; 2 hours of treatment): 42% | Apoptosis (%) ([4]; 4 hours of treatment): 4% | G0/G1 (%) ([4]; 4 hours of treatment): 28% | G2/M (%) ([4]; 4 hours of treatment): 29% | S (%) ([4]; 4 hours of treatment): 39% | Apoptosis (%) ([4]; 8 hours of treatment): 5% | G0/G1 (%) ([4]; 8 hours of treatment): 16% | G2/M (%) ([4]; 8 hours of treatment): 44% | S (%) ([4]; 8 hours of treatment): 35% | Apoptosis (%) ([4]; 12 hours of treatment): 7% | G0/G1 (%) ([4]; 12 hours of treatment): 4% | G2/M (%) ([4]; 12 hours of treatment): 60% | S (%) ([4]; 12 hours of treatment): 29% | Apoptosis (%) ([4]; 24 hours of treatment): 18% | G0/G1 (%) ([4]; 24 hours of treatment): 2% | G2/M (%) ([4]; 24 hours of treatment): 70% | S (%) ([4]; 24 hours of treatment): 10% | Apoptosis (%) ([4]; 48 hours of treatment): 33% | G0/G1 (%) ([4]; 48 hours of treatment): 1% | G2/M (%) ([4]; 48 hours of treatment): 61% | S (%) ([4]; 48 hours of treatment): 5% | shift of the cell population from G0/G1 (2N) to G2/M (4N), DNA profile [4]: major shift | Mitotic Arrest ([4]; Continuous Exposure (24 hr; 48 hr in footnote)): ++++ (++++: >75% cells were affected) | Mitotic Arrest ([4]; Pulse Exposure (1 hr)): ++++ (++++: >75% cells were affected)

NC(=O)NC(=O)c1cccc(NC(=O)CI)c1 [Compound 9, 3-Iodoacetoamido, benzoylurea]
fold more toxic than the bromine compound 8 ([1]; CEM cells, cytotoxicity): 5 fold | fold more toxic than the chlorine compound 7 ([1]; CEM cells, cytotoxicity): 160 fold | IC90 [1, 5]: 0.005 µg/mL and 14 nM | mitotic arrest (blocking) effect, morphological appearance [2]: main features of mitotic arrest | Mitotic arrest, % [2]: >85% | apoptosis by morphology [2]: complete apoptosis | inhibition of microtubule assembly [3]: complete inhibition; also recorded: completely inhibited | shift of the cell population from G0/G1 (2N) to G2/M (4N), DNA profile [4]: most significant transformation; also recorded: major shift
